Measurements reported in patent publication US9969697B2, “3,4-dihydroquinazoline derivative and combination comprising the same” (UNIVERSITY-INDUSTRY COOPERATION GROUP OF KYUNG HEE …, priority 2014, dated 2018).
Each block holds one compound with its values, some of them ahead of it.

Assays:
lung cancer cells (A549) [1] = assay: Cell cycle analysis by PI staining / flow cytometry, with combination index; format: cell-based, human; parameters: SubG1: unit not given here; details: A549, 48 hours
Experimental: To measure the inviability of cancer cells quantitatively, the cell cycle thereof was analyzed through flow cytometry as follows, in accordance with the method given in the document [See Kim, Y. H. et al., Expression of the murine homologue of the cell cycle control protein […] in T lymphocytes.
After adding ribonuclease (2.5 μg/ml) and propidium iodide (50 μg/ml) together with 500 μl of PBS, the cells were left for 30 minutes in the dark at room temperature, followed by analyzing cell cycle within 1 hour using FACScan flow cytometer (Becton Dickinson Co, Heidelberg, Germany).
(§1) Combination index (CI) mathematically expresses the cytotoxicity on cancer cells or growth inhibition of cancer cells through relative comparison after treating drugs alone or in a combination. The CI is the quantitative concept introduced by Paul Talalay and Ting-Chao Chou and was calculated using CalcuSyn software. The effect of combination treatment according to the values of CI was defined as follows.

lung cancer cells (A549) [2] = assay: Annexin V-FITC/PI double staining assay (apoptosis), with combination index; format: cell-based, human; parameters: unit not given here
Experimental: Cell death include the event that phosphatidylserine translocated to the surface of cell membrane is bound to Annexin V-FITC to express fluorochromes. Cells were treated with drugs, harvested, washed with ice-cold PBS twice, and supplied with 100 μl of Annexin V binding buffer ([…] 4-(2-hydroxyethyl)piperazine-1-ethanesulfonic acid (HEPES)/NaOH, 140 mM NaCl, 2.5 mM CaCl2, pH 7.4). Thereto, 5 μl of FITC-conjugated Annexin V and PI (50 μg/ml) were added. The mixture was left for 30 minutes in the dark at room temperature, followed by analysis within 1 hour using FACScan flow cytometer (Becton Dickinson Co, Heidelberg, Germany).
as §1

[3] = system: A549 cell line (human lung cancer); assay: MTT cytotoxicity assay on cancer cells; format: cell-based; details: 48 hours after treatment
Experimental: A549 cell line (human lung cancer) and PANC-1 cell line (human pancreatic cancer) were obtained from Korean Cell Line Bank (KCLB). The cells were cultured in RPMI 1640 medium supplemented with 10% fetal bovine serum (FBS) being heated and inactivated, penicillin (100 units/ml) and streptomycin sulfate (100 units/ml) under the condition of 37° C. and 5% CO2.
In order to confirm the cytotoxicity of drugs, an MTT (3-(4,5-dimethylthiazol-2-yl)-2,5-diphenyltetrazolium bromide) assay was conducted as follows [See Armichael et al., Evaluation of a tetrazolium-based semiautomated colorimetric assay: assessment of chemisensitivity testing. Cancer Research, 47, pp. 944-946, 1987]. The MTT assay is based on the reduction of water-soluble MTT (tetrazolium salt, yellow) which can be absorbed in living cells to its water-insoluble formazan crystals (purple) by activity of oxidoreductase enzymes of mitochondria. That is, when the number of viable cells is more, the formation of formazan crystals increases and the value of absorbance becomes higher.
Each of the cultured cancer cells was inoculated in a 96-well plate (5×10^4 cells/well) and cultured in RPMI medium (100 μl) containing 5% FBS. In 48 hours after the treatment of drugs (200, 100, 50, 25, 12.5, 6.25, 3.125 μM), 20 μl of an MTT solution (5.0 mg/ml) was added to each well, followed by further incubation for 4 hours. The supernatant of the plate was collected, and formazan crystals formed by MTT in the cells were added in 200 μl of DMSO to dissolve the precipitate. The OD value was measured at 540 nm using microplate reader (Molecular Devices).

[4] = target: T1, α1G T-type calcium channel (Homo sapiens, UniProt O43497); assay: T-type calcium channel activity, whole-cell patch-clamp in HEK293 cells; format: cell-based; details: HEK293 cells expressing α1G T-type calcium channel; read-out: T-type calcium channel blocking effect (IC50: μM)
T1 construct: expressed in transfected cells
Experimental: The culture medium was replaced with a fresh medium every 3 to 4 days, and the cultured cells were subjected to sub-culture every week. […] The cells used for T-type calcium channel activity assay were cultured on a cover slip coated with poly-L-lysine (0.5 mg/mL) whenever sub-cultured, and their calcium channel activity was recorded 2 to 7 days after the cultivation. Current of the T-type calcium channel at a single cell level was measured according to an electrophysiological whole-cell patch-clamp method using EPC-9 amplifier (HEKA, Germany). At this time, a cell exterior solution [NaCl 140 mM, CaCl2 2 mM, and HEPES 10 mM (pH 7.4)] and a cell interior solution [KCl 130 mM, HEPES 10 mM, EGTA 11 mM, and MgATP 5 mM (pH 7.4)] were employed. Inward current caused by the T-type calcium channel activation which occurred when the cells were converted into a whole-cell recording mode by stabbing a microglass electrode having 3-4 MΩ resistance which was filled with the cell interior solution into a single cell and depolarized at −30 mV (50 ms duration period) every 10 s with fixing membrane potential to −100 mV was measured according to a T-type calcium Channel activity protocol activated at low voltage.

[5] = system: pancreatic cancer cells (PANC-1); assay: Cell cycle analysis by PI staining / flow cytometry, with combination index; format: cell-based, human; details: PANC-1, 48 hours, Table 3

T1 sequence (O43497 whole entry): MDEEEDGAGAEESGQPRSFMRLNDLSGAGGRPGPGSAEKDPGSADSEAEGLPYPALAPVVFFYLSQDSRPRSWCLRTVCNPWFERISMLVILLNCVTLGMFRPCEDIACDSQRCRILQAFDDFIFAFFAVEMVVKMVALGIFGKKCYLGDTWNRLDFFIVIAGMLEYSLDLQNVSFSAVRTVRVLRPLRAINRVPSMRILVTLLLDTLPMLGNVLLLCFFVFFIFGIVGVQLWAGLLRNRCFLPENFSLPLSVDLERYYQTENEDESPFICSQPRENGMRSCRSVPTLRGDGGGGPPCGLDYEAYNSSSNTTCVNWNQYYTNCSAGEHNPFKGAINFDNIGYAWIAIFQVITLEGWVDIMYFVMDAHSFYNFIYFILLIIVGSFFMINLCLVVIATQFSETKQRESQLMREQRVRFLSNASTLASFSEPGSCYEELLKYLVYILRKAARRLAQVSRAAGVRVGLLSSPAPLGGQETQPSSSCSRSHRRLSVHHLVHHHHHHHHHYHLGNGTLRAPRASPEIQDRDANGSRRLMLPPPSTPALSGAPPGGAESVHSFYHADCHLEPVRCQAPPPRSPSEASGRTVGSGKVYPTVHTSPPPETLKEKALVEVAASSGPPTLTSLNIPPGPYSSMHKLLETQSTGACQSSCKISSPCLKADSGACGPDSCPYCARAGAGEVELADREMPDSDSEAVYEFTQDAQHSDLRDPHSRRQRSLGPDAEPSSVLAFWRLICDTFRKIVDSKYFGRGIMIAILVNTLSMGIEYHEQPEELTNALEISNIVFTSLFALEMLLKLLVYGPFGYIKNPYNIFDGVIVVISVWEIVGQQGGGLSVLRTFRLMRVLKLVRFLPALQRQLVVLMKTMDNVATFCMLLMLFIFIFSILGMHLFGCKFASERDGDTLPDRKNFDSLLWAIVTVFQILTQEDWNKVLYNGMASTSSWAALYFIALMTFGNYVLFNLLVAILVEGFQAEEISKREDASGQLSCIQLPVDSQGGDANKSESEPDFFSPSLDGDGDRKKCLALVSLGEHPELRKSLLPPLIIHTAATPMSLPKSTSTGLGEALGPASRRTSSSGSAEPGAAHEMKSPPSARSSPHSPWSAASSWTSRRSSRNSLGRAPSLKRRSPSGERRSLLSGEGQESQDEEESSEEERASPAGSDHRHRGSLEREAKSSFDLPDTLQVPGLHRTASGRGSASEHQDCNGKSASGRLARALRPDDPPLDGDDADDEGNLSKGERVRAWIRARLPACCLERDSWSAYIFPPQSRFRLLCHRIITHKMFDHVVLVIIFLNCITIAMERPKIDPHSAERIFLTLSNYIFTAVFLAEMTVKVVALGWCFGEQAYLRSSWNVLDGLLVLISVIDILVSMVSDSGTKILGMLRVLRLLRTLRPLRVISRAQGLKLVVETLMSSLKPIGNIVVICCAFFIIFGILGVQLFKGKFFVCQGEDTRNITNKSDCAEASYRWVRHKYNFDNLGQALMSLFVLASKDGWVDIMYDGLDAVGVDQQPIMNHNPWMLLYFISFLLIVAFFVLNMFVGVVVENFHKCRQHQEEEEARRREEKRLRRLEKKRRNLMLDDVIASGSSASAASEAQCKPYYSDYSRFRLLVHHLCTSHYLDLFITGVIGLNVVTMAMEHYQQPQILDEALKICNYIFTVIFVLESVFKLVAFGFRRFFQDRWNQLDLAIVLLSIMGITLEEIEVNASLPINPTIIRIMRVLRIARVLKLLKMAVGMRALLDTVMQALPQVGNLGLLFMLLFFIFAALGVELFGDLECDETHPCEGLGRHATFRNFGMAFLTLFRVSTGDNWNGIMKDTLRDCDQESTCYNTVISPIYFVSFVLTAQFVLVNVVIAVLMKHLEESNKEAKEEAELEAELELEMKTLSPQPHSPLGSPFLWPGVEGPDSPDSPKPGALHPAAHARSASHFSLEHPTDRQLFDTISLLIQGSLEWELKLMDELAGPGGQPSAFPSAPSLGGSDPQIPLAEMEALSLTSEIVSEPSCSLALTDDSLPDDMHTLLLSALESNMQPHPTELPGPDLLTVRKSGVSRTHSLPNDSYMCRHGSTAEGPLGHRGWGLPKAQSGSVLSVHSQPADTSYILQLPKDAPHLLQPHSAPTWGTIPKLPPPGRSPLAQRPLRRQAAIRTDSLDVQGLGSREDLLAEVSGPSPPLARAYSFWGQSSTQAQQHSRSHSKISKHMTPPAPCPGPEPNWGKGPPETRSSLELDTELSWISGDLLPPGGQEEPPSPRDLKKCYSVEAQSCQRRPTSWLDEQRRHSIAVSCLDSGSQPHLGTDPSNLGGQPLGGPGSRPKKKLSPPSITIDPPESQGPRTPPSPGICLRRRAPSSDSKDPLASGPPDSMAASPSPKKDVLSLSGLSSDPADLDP

SMILES: C#Cc1cccc(Nc2ncnc3cc(OCCOC)c(OCCOC)cc23)c1 [erlotinib, Erlotinib]
- G0/G1 (lung cancer cells (A549) [1]; 150 μM, Table 5): 70.6
- G2/M (lung cancer cells (A549) [1]; 150 μM, Table 5): 12.9
- S (lung cancer cells (A549) [1]; 150 μM, Table 5): 7.2
- SubG1 (lung cancer cells (A549) [1]; 150 μM, Table 5): 9.6
- G0/G1 (lung cancer cells (A549) [1]; 300 μM, Table 6): 27.7
- G2/M (lung cancer cells (A549) [1]; 300 μM, Table 6): 1.2
- S (lung cancer cells (A549) [1]; 300 μM, Table 6): 1
- SubG1 (lung cancer cells (A549) [1]; 300 μM, Table 6): 70.3

SMILES: COc1ccc(CN(C(C)=O)C2c3ccccc3N=C(N(C)CCCNC(=O)N(C)C)N2c2ccc(C3CCCCC3)cc2)cc1 (stereo not shown) [Compound I-3, 4-[N-(4-methoxybenzyl)acetamido)-3-(4-cyclohexylphenyl)-2-[N—(N′,N′-dimethylureidopropyl)-N-methyl]amino-3,4-dihydroquinazoline]
- G0/G1 (lung cancer cells (A549) [1]; 10 μM, Table 6): 76.8
- G2/M (lung cancer cells (A549) [1]; 10 μM, Table 6): 12.1
- S (lung cancer cells (A549) [1]; 10 μM, Table 6): 7.6
- SubG1 (lung cancer cells (A549) [1]; 10 μM, Table 6): 3.7

SMILES: COc1cc([C@@H]2c3cc4c(cc3[C@@H](O[C@@H]3O[C@@H]5CO[C@@H](C)O[C@H]5[C@H](O)[C@H]3O)[C@H]3COC(=O)[C@H]23)OCO4)cc(OC)c1O [Etoposide]
- G0/G1 (lung cancer cells (A549) [1]; 50 μM, Table 4): 36.0
- G2/M (lung cancer cells (A549) [1]; 50 μM, Table 4): 18.9
- S (lung cancer cells (A549) [1]; 50 μM, Table 4): 12.3
- SubG1 (lung cancer cells (A549) [1]; 50 μM, Table 4): 33.0
- AV+/PI− (early apoptosis) (lung cancer cells (A549) [2]; A549, 50 μM): 19.1
- Total AV+ (sum of early and late apoptosis) (lung cancer cells (A549) [2]; A549, 50 μM): 31.68

SMILES: Cc1ccc(NC(=O)c2ccc(CN3CCN(C)CC3)cc2)cc1Nc1nccc(-c2cccnc2)n1 [Imatinib]
- G0/G1 (lung cancer cells (A549) [1]; 100 μM, Table 5): 72.4
- G2/M (lung cancer cells (A549) [1]; 100 μM, Table 5): 14.4
- SubG1 (lung cancer cells (A549) [1]; 100 μM, Table 5): 2.9
- G0/G1 (lung cancer cells (A549) [1]; 100 μM, Table 6): 72.4
- G2/M (lung cancer cells (A549) [1]; 100 μM, Table 6): 14.4
- SubG1 (lung cancer cells (A549) [1]; 100 μM, Table 6): 2.9

SMILES: COc1cccc2c1C(=O)c1c(O)c3c(c(O)c1C2=O)C[C@@](O)(C(=O)CO)C[C@@H]3O[C@H]1C[C@H](N)[C@H](O)[C@H](C)O1 [Doxorubicin]
- G0/G1 (lung cancer cells (A549) [1]; 10 μM, Table 5): 36.7
- G2/M (lung cancer cells (A549) [1]; 10 μM, Table 5): 18.3
- S (lung cancer cells (A549) [1]; 10 μM, Table 5): 11.9
- SubG1 (lung cancer cells (A549) [1]; 10 μM, Table 5): 33.5
- G0/G1 (lung cancer cells (A549) [1]; 10 μM, Table 6): 36.7
- G2/M (lung cancer cells (A549) [1]; 10 μM, Table 6): 18.3
- S (lung cancer cells (A549) [1]; 10 μM, Table 6): 11.9
- SubG1 (lung cancer cells (A549) [1]; 10 μM, Table 6): 33.5

SMILES: COc1cc2ncnc(Nc3ccc(F)c(Cl)c3)c2cc1OCCCN1CCOCC1 [Gefitinib]
- G0/G1 (lung cancer cells (A549) [1]; 40 μM, Table 5): 72.7
- G2/M (lung cancer cells (A549) [1]; 40 μM, Table 5): 11.8
- S (lung cancer cells (A549) [1]; 40 μM, Table 5): 4
- SubG1 (lung cancer cells (A549) [1]; 40 μM, Table 5): 11.6
- G0/G1 (lung cancer cells (A549) [1]; 40 μM, Table 6): 72.7
- G2/M (lung cancer cells (A549) [1]; 40 μM, Table 6): 11.8
- S (lung cancer cells (A549) [1]; 40 μM, Table 6): 4
- SubG1 (lung cancer cells (A549) [1]; 40 μM, Table 6): 11.6

SMILES: COCC(=O)O[C@]1(CCN(C)CCCc2nc3ccccc3[nH]2)CCc2cc(F)ccc2[C@@H]1C(C)C [Mibefradil]
- IC50 [3]: 24.9 µM

- IC50 [4]: 0.89 ± 0.06 µM
SMILES: CN(C)C(=O)NCCCN(C)C1=Nc2ccccc2C(CC(=O)NCc2ccc(F)cc2)N1c1ccc(C2CCCCC2)cc1 (stereo not shown) [Compound I-2, 4-[N-(4-fluorobenzyl)acetamido]-3-(4-cyclohexylphenyl)-2-[N—(N′,N′-dimethylureidopropyl)-N-methyl]amino-3,4-dihydroquinazoline]
- IC50 [3]: 7.3 µM
- G0/G1 (lung cancer cells (A549) [1]; 10 μM, Table 2): 79.1
- G2/M (lung cancer cells (A549) [1]; 10 μM, Table 2): 10.9
- S (lung cancer cells (A549) [1]; 10 μM, Table 2): 2.4
- SubG1 (lung cancer cells (A549) [1]; 10 μM, Table 2): 7.6
- G0/G1 (lung cancer cells (A549) [1]; 10 μM, Table 4): 77.4
- G2/M (lung cancer cells (A549) [1]; 10 μM, Table 4): 13.3
- S (lung cancer cells (A549) [1]; 10 μM, Table 4): 5.4
- SubG1 (lung cancer cells (A549) [1]; 10 μM, Table 4): 4.0
- G0/G1 (lung cancer cells (A549) [1]; 10 μM, Table 5): 76.8
- G2/M (lung cancer cells (A549) [1]; 10 μM, Table 5): 12.1
- S (lung cancer cells (A549) [1]; 10 μM, Table 5): 7.6
- SubG1 (lung cancer cells (A549) [1]; 10 μM, Table 5): 3.7
- G0/G1 ([5]; 2.5 μM): 44.7
- G2/M ([5]; 2.5 μM): 35
- S ([5]; 2.5 μM): 7.2
- SubG1 ([5]; 2.5 μM): 2.5
- AV+/PI− (early apoptosis) (lung cancer cells (A549) [2]; A549, 2.5 μM): 2.4
- Total AV+ (sum of early and late apoptosis) (lung cancer cells (A549) [2]; A549, 2.5 μM): 6.08
- AV+/PI− (early apoptosis) (lung cancer cells (A549) [2]; A549, 5 μM): 1.88
- Total AV+ (sum of early and late apoptosis) (lung cancer cells (A549) [2]; A549, 5 μM): 4.78
- AV+/PI− (early apoptosis) (lung cancer cells (A549) [2]; A549, 10 μM): 8.8
- Total AV+ (sum of early and late apoptosis) (lung cancer cells (A549) [2]; A549, 10 μM): 13.14

- IC50 [4]: 0.39 ± 0.11 µM
SMILES: CN(C)C(=O)NCCCN(C)C1=Nc2ccccc2C(CC(=O)NCc2ccccc2)N1c1ccc(C2CCCCC2)cc1 (stereo not shown) [Compound I-1, 4-(N-benzylacetamido)-3-(4-cyclohexylphenyl)-2-[N—(N′,N′-dimethylureidopropyl)-N-methyl]amino-3,4-dihydroquinazoline]
- IC50 [3]: 12.2 µM

SMILES: N.N.[Cl][Pt][Cl] [Cisplatin]
- G0/G1 (lung cancer cells (A549) [1]; 20 μM, Table 2): 9.0
- G2/M (lung cancer cells (A549) [1]; 20 μM, Table 2): 67.5
- S (lung cancer cells (A549) [1]; 20 μM, Table 2): 13.1
- SubG1 (lung cancer cells (A549) [1]; 20 μM, Table 2): 10.5
- G0/G1 (lung cancer cells (A549) [1]; 30 μM, Table 2): 14.0
- G2/M (lung cancer cells (A549) [1]; 30 μM, Table 2): 52.9
- S (lung cancer cells (A549) [1]; 30 μM, Table 2): 15.8
- SubG1 (lung cancer cells (A549) [1]; 30 μM, Table 2): 17.0
- G0/G1 ([5]; 30 μM): 42
- G2/M ([5]; 30 μM): 29.4
- S ([5]; 30 μM): 9.4
- SubG1 ([5]; 30 μM): 9.3
